Measured values published in PubChem BioAssay (NCI).
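Values below derive from 48-hour exposures of cells grown in 96-well plates, with endpoints linearly interpolated between the two concentrations bracketing the appropriate inhibition level. TGI: concentration producing complete growth inhibition.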

What was measured:
Experiment in all cases: NCI-60 cell line screen, 48 h
A498 renal = system: A498 renal
HCT-15 colon = system: HCT-15 colon
UO-31 renal = system: UO-31 renal
RPMI-8226 leukemia = system: RPMI-8226 leukemia
KM12 colon = system: KM12 colon
OVCAR-5 ovarian = system: OVCAR-5 ovarian
HT29 colon = system: HT29 colon
NCI-H460 lung = system: NCI-H460 lung
CAKI-1 renal = system: CAKI-1 renal
PC-3 prostate = system: PC-3 prostate

| Structure (SMILES) | TGI (A498 renal) | TGI (HCT-15 colon) | TGI (UO-31 renal) | TGI (RPMI-8226 leukemia) | TGI (KM12 colon) | TGI (OVCAR-5 ovarian) | TGI (HT29 colon) | TGI (NCI-H460 lung) | TGI (CAKI-1 renal) | TGI (PC-3 prostate) |
| --- | --- | --- | --- | --- | --- | --- | --- | --- | --- | --- |
| Cc1cc2c(cc1C)[n+](=O)c(C(=O)N1CCN(c3ccc([N+](=O)[O-])cc3)CC1)c(C)n2[O-] | > 100 µM | > 100 µM | > 100 µM | > 100 µM | > 100 µM | > 100 µM | > 100 µM | > 100 µM | > 100 µM | > 100 µM |
| COc1cc2c(cc1OC)C1(c3ccccc3)CN(C2)Cc2cc(OC)c(OC)cc21 | > 100 µM | > 100 µM | > 100 µM | 80.2 µM | > 100 µM | > 100 µM | > 100 µM | > 100 µM | > 100 µM | > 100 µM |
| Cc1ccc2c(=O)c(-c3nnc(N)s3)c[nH]c2n1 | > 100 µM | > 100 µM | > 100 µM | > 100 µM | > 100 µM | > 100 µM | > 100 µM | > 100 µM | > 100 µM | > 100 µM |
| Cc1ccc(S(=O)(=O)Oc2cc(S(=O)(=O)O)cc3cc(S(=O)(=O)O)cc(N)c23)cc1 | > 100 µM | > 100 µM | > 100 µM | > 100 µM | > 100 µM | > 100 µM | > 100 µM | > 100 µM | > 100 µM | > 100 µM |
| N#CC(C#N)=C(N)/C(C#N)=C/c1cc(O)c(O)c(Br)c1 | > 100 µM | > 100 µM | > 100 µM | > 100 µM | > 100 µM | > 100 µM | > 100 µM | > 100 µM | > 100 µM | > 100 µM |
| COC(=O)C(Cc1ccccc1I)C1=CCC2(CC1)OCCO2 (stereo not given) | > 100 µM | > 100 µM | 66.3 µM | > 100 µM | 76.2 µM | 54.5 µM | > 100 µM | > 100 µM | > 100 µM | 93.8 µM |
| O=C(OCC12CC3CC(CC(C3)C1)C2)c1ccc(NCc2cc(O)ccc2O)cc1 | 11.8 µM | 5.75 µM | 1.96 µM | 1.68 µM | 4.52 µM | 4.71 µM | 14.6 µM | 7.5 µM | 2.06 µM | 4.88 µM |
| CCOC(=O)c1cc(C2CCN(Cc3ccccc3)C2=O)c(C(=O)C(=[N+]=[N-])C(C)=O)[nH]1 (stereo not given) | > 100 µM | > 100 µM | > 100 µM | > 100 µM | > 100 µM | > 100 µM | > 100 µM | > 100 µM | > 100 µM | > 100 µM |
| COc1ccc2c(c1)nc1n2C(c2c(F)cccc2Cl)SC1 (stereo not given) | > 29.7 µM | > 37.2 µM | > 100 µM | > 47.8 µM | > 54.4 µM | > 100 µM | > 100 µM | > 35.1 µM | > 100 µM | > 51.6 µM |
| CC(/C=C/c1ccc([N+](=O)[O-])o1)=N/N1CC(CN2CCOCC2)OC1=O (stereo not given) | 83.9 µM | 40.3 µM | 45.4 µM | 41.9 µM | > 100 µM | > 100 µM | > 100 µM | 46.9 µM | 40.7 µM | 68 µM |
| CCn1c(=O)ccc2ccc(N(CCO)CCO)nc21 | > 100 µM | > 100 µM | > 100 µM | > 100 µM | > 100 µM | > 100 µM | > 100 µM | > 100 µM | > 100 µM | > 100 µM |
| COC(=O)C1C2C=CC(C2)N1S(=O)(=O)c1ccccc1 (stereo not given) | > 100 µM | > 100 µM | > 100 µM | > 100 µM | > 100 µM | > 100 µM | > 100 µM | > 100 µM | > 100 µM | > 100 µM |
| COC(=NCCC1=CCCCC1)OC | > 100 µM | > 100 µM | > 100 µM | 85.8 µM | > 100 µM | > 100 µM | 82.9 µM | > 100 µM | > 100 µM | > 100 µM |
| CC1=CCC[C@@H]2[C@@](C)(Cc3cc(O)ccc3O)[C@H](C)CC[C@@]12C | 32.7 µM | 16 µM | 12.8 µM | 21.7 µM | 16.4 µM | 28.3 µM | 42.7 µM | 22.4 µM | 25.7 µM | 14.1 µM |
| O=C1NC(=O)C(C(c2ccc(Cl)cc2)C2C(=O)NC(=O)NC2=O)C(=O)N1 | > 100 µM | > 100 µM | > 100 µM | > 100 µM | > 100 µM | > 100 µM | > 100 µM | > 100 µM | > 100 µM | > 100 µM |
| CCCC(=O)OC[n+]1cccc(-c2c(COC(=O)NC(C)C)c(COC(=O)NC(C)C)c3n2CCC3)c1 | > 61.6 µM | > 100 µM | > 100 µM | > 100 µM | > 100 µM | > 100 µM | > 100 µM | > 100 µM | 46 µM | > 100 µM |
| O=C(O)c1cc(=O)[nH]c(=S)[nH]1 | > 100 µM | > 100 µM | > 100 µM | > 100 µM | > 100 µM | > 100 µM | > 100 µM | > 100 µM | > 100 µM | > 100 µM |
